According to PubChem BioAssay (NCI):
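Test compounds were applied to cells in 96-well plates for 48 hours at 5 doses. TGI: concentration producing complete growth inhibition.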

system: 786-0 renal; assay: NCI-60 cell line screen, 48 h

| SMILES | TGI |
| --- | --- |
| COc1ccc(CCNC2=CC(=O)c3ncccc3C2=O)cc1OC | 21.2 µM |
| CC1(C)OCC2OC3(c4nc(C#N)c(N)o4)OC(C)(C)OC3C2O1 (stereo not drawn) | > 100 µM |
| CC12CCC(C(=O)OC1=O)C2(C)C (stereo not drawn) | > 100 µM |
| COn1cc(C=O)c2ccccc21 | > 100 µM |
| CC1=CC(C2/C(=N/O)C=C(C)CC2(C)C)C(O)C(C)(C)C1 (stereo not drawn) | 31.8 µM |
| C=CCNC1=C2C[C@@H](C)C[C@@H](OC)[C@@H](OC(=O)CCCN)[C@H](C)/C=C(\C)[C@@H](OC(N)=O)[C@H](OC)/C=C\C=C(/C)C(=O)NC(=CC1=O)C2=O | 42.2 µM |
| c1cc(-c2ncc(-c3ccc4c(c3)CCCO4)o2)ccn1 | > 100 µM |
| O=C1NC(=O)C(c2c[nH]c3cc(Br)ccc23)=C1c1cn(C(c2ccccc2)(c2ccccc2)c2ccccc2)cn1 | 23.2 µM |
| CC(C)=CCS(=O)c1ccccc1NC1=CC(=O)CC(C)(C)C1 (stereo not drawn) | > 100 µM |
| COC(=O)C1=C(C)NC(C)=C(C(=O)OC)C1c1ccc(/[N+]([O-])=C/c2ccccc2)cc1 | 33.3 µM |
| Cc1cc(C)cc(C(=N)c2ccccc2Cc2cccc3ccccc23)c1 | 31.8 µM |
| COC1=C(Br)[C@H](O)[C@@]2(C=C1Br)CC(C(=O)NCCCCCN=C(N)N)=NO2 | > 10 µM |
| CC1(C#N)CC(C)(C)C(/C=C2/CC(C)(C)C(/C=C3/OC(=N)CC3(C)C)=N2)=N1 (stereo not drawn) | 62.6 µM |
| C#CCn1ncc2c(SCc3ccccc3)ncnc21 | > 100 µM |
| CCOC(=O)CC1c2ccc(O)cc2OC(=O)C1c1ccc([N+](=O)[O-])cc1 (stereo not drawn) | > 100 µM |
| CCN1c2nc3ccccc3nc2N(CC)c2nc3ccccc3nc21 | > 100 µM |
| CCN(CC)/C(Cl)=C(Cl)\C(=C1\Nc2ccc(OC)cc21)[N+](=O)[O-] | > 100 µM |

system: CCRF-CEM leukemia; assay: NCI-60 cell line screen, 48 h

| SMILES | TGI |
| --- | --- |
| COc1ccc(CCNC2=CC(=O)c3ncccc3C2=O)cc1OC | 39.1 µM |
| CC1(C)OCC2OC3(c4nc(C#N)c(N)o4)OC(C)(C)OC3C2O1 (stereo not drawn) | > 100 µM |
| CC12CCC(C(=O)OC1=O)C2(C)C (stereo not drawn) | > 100 µM |
| COn1cc(C=O)c2ccccc21 | 1.34 µM |
| CC1=CC(C2/C(=N/O)C=C(C)CC2(C)C)C(O)C(C)(C)C1 (stereo not drawn) | 60.4 µM |
| C=CCNC1=C2C[C@@H](C)C[C@@H](OC)[C@@H](OC(=O)CCCN)[C@H](C)/C=C(\C)[C@@H](OC(N)=O)[C@H](OC)/C=C\C=C(/C)C(=O)NC(=CC1=O)C2=O | 28.9 µM |
| c1cc(-c2ncc(-c3ccc4c(c3)CCCO4)o2)ccn1 | 29.3 µM |
| O=C1NC(=O)C(c2c[nH]c3cc(Br)ccc23)=C1c1cn(C(c2ccccc2)(c2ccccc2)c2ccccc2)cn1 | > 100 µM |
| CC(C)=CCS(=O)c1ccccc1NC1=CC(=O)CC(C)(C)C1 (stereo not drawn) | > 100 µM |
| COC(=O)C1=C(C)NC(C)=C(C(=O)OC)C1c1ccc(/[N+]([O-])=C/c2ccccc2)cc1 | 48 µM |
| Cc1cc(C)cc(C(=N)c2ccccc2Cc2cccc3ccccc23)c1 | 26.5 µM |
| COC1=C(Br)[C@H](O)[C@@]2(C=C1Br)CC(C(=O)NCCCCCN=C(N)N)=NO2 | > 10 µM |
| CC1(C#N)CC(C)(C)C(/C=C2/CC(C)(C)C(/C=C3/OC(=N)CC3(C)C)=N2)=N1 (stereo not drawn) | > 100 µM |
| C#CCn1ncc2c(SCc3ccccc3)ncnc21 | > 100 µM |
| CCOC(=O)CC1c2ccc(O)cc2OC(=O)C1c1ccc([N+](=O)[O-])cc1 (stereo not drawn) | 62.1 µM |
| CCN1c2nc3ccccc3nc2N(CC)c2nc3ccccc3nc21 | > 100 µM |
| CCN(CC)/C(Cl)=C(Cl)\C(=C1\Nc2ccc(OC)cc21)[N+](=O)[O-] | 93.6 µM |

system: DU-145 prostate; assay: NCI-60 cell line screen, 48 h

| SMILES | TGI |
| --- | --- |
| COc1ccc(CCNC2=CC(=O)c3ncccc3C2=O)cc1OC | 3.57 µM |
| CC1(C)OCC2OC3(c4nc(C#N)c(N)o4)OC(C)(C)OC3C2O1 (stereo not drawn) | > 100 µM |
| CC12CCC(C(=O)OC1=O)C2(C)C (stereo not drawn) | > 100 µM |
| COn1cc(C=O)c2ccccc21 | > 100 µM |
| CC1=CC(C2/C(=N/O)C=C(C)CC2(C)C)C(O)C(C)(C)C1 (stereo not drawn) | 29.1 µM |
| C=CCNC1=C2C[C@@H](C)C[C@@H](OC)[C@@H](OC(=O)CCCN)[C@H](C)/C=C(\C)[C@@H](OC(N)=O)[C@H](OC)/C=C\C=C(/C)C(=O)NC(=CC1=O)C2=O | 38.3 µM |
| c1cc(-c2ncc(-c3ccc4c(c3)CCCO4)o2)ccn1 | > 100 µM |
| O=C1NC(=O)C(c2c[nH]c3cc(Br)ccc23)=C1c1cn(C(c2ccccc2)(c2ccccc2)c2ccccc2)cn1 | 62.8 µM |
| CC(C)=CCS(=O)c1ccccc1NC1=CC(=O)CC(C)(C)C1 (stereo not drawn) | > 100 µM |
| COC(=O)C1=C(C)NC(C)=C(C(=O)OC)C1c1ccc(/[N+]([O-])=C/c2ccccc2)cc1 | > 100 µM |
| Cc1cc(C)cc(C(=N)c2ccccc2Cc2cccc3ccccc23)c1 | 29.7 µM |
| COC1=C(Br)[C@H](O)[C@@]2(C=C1Br)CC(C(=O)NCCCCCN=C(N)N)=NO2 | > 10 µM |
| CC1(C#N)CC(C)(C)C(/C=C2/CC(C)(C)C(/C=C3/OC(=N)CC3(C)C)=N2)=N1 (stereo not drawn) | > 100 µM |
| C#CCn1ncc2c(SCc3ccccc3)ncnc21 | > 100 µM |
| CCOC(=O)CC1c2ccc(O)cc2OC(=O)C1c1ccc([N+](=O)[O-])cc1 (stereo not drawn) | > 100 µM |
| CCN1c2nc3ccccc3nc2N(CC)c2nc3ccccc3nc21 | > 100 µM |
| CCN(CC)/C(Cl)=C(Cl)\C(=C1\Nc2ccc(OC)cc21)[N+](=O)[O-] | > 100 µM |

system: LOX IMVI melanoma; assay: NCI-60 cell line screen, 48 h

| SMILES | TGI |
| --- | --- |
| COc1ccc(CCNC2=CC(=O)c3ncccc3C2=O)cc1OC | 3.14 µM |
| CC1(C)OCC2OC3(c4nc(C#N)c(N)o4)OC(C)(C)OC3C2O1 (stereo not drawn) | > 100 µM |
| CC12CCC(C(=O)OC1=O)C2(C)C (stereo not drawn) | > 100 µM |
| COn1cc(C=O)c2ccccc21 | > 100 µM |
| CC1=CC(C2/C(=N/O)C=C(C)CC2(C)C)C(O)C(C)(C)C1 (stereo not drawn) | 32.3 µM |
| C=CCNC1=C2C[C@@H](C)C[C@@H](OC)[C@@H](OC(=O)CCCN)[C@H](C)/C=C(\C)[C@@H](OC(N)=O)[C@H](OC)/C=C\C=C(/C)C(=O)NC(=CC1=O)C2=O | > 47.3 µM |
| c1cc(-c2ncc(-c3ccc4c(c3)CCCO4)o2)ccn1 | 31 µM |
| O=C1NC(=O)C(c2c[nH]c3cc(Br)ccc23)=C1c1cn(C(c2ccccc2)(c2ccccc2)c2ccccc2)cn1 | 33.4 µM |
| CC(C)=CCS(=O)c1ccccc1NC1=CC(=O)CC(C)(C)C1 (stereo not drawn) | > 100 µM |
| COC(=O)C1=C(C)NC(C)=C(C(=O)OC)C1c1ccc(/[N+]([O-])=C/c2ccccc2)cc1 | > 100 µM |
| Cc1cc(C)cc(C(=N)c2ccccc2Cc2cccc3ccccc23)c1 | 33 µM |
| COC1=C(Br)[C@H](O)[C@@]2(C=C1Br)CC(C(=O)NCCCCCN=C(N)N)=NO2 | > 10 µM |
| CC1(C#N)CC(C)(C)C(/C=C2/CC(C)(C)C(/C=C3/OC(=N)CC3(C)C)=N2)=N1 (stereo not drawn) | > 100 µM |
| C#CCn1ncc2c(SCc3ccccc3)ncnc21 | > 100 µM |
| CCOC(=O)CC1c2ccc(O)cc2OC(=O)C1c1ccc([N+](=O)[O-])cc1 (stereo not drawn) | > 100 µM |
| CCN1c2nc3ccccc3nc2N(CC)c2nc3ccccc3nc21 | > 100 µM |
| CCN(CC)/C(Cl)=C(Cl)\C(=C1\Nc2ccc(OC)cc21)[N+](=O)[O-] | > 100 µM |
